Series [1] concerns ROS1-positive advanced NSCLC. The note with it: cited from earlier work; for confirmed objective response rate (ORR): preliminary TRIDENT-1 data.
Another series deals with T1, human ABCB1.
T1 construct: expressed in transfected cells; host or cells: MDCK-II cells stably transduced with hABCB1 cDNA (made in the authors' institute)
Briefly: Transepithelial transport, MDCK-II cells transduced with hABCB1. The format is in vitro ADME. The following applies: MDCK-MDR1, pH 7.4, with zosuquidar 5 µM, MDCK-II hABCB1, 5 µM, + zosuquidar 5 µM, read-out: efflux transport ratio r. An excerpt: (§1) Polarized Madin-Darby Canine Kidney (MDCK-II) cells (ECACC 00062107) stably transduced with either human (h) ABCB1, hABCG2 or mouse (m) Abcg2 cDNA were generated in our institute between 1995–2005. The proper identity and functionality, such as highly characteristic growth and drug transporter properties, including inhibitor sensitivity, were regularly checked in these epithelial cells. Mycoplasma routinely tested negative in these cells. The passage number was 10–15 when used in the transport experiments.
(§2) Transepithelial transport experiments were performed as previously described with 12-well plates (Transwell 3414, Corning Inc., Kennebunk, ME, USA) containing microporous polycarbonate membrane filters (3.0 µm pore size, 12 mm diameter). […]
(§3) After pre-incubation with 5 µM zosuquidar (ABCB1 inhibitor) and/or 5 µM Ko143 (ABCG2/Abcg2 inhibitor) in both compartments (when appropriate) for 1 h, the transport phase was initiated (t = 0) by replacing the medium in apical and basolateral compartments with fresh DMEM with 10% FBS and the appropriate inhibitor(s), and repotrectinib at 5 µM in the donor compartment. […] The active transport ratio r, calculated by dividing the amount of apically directed drug transport by basolaterally directed drug translocation after 8 h, was used to assess active transport of repotrectinib.

The nature of series [2]: Toxicity signs observed in mice after oral repotrectinib. The format is in vivo. The note with it: 10 mg/kg oral. An excerpt:
(§4) Mice with similar average ages (and body weights) were randomly allocated in experimental groups as far as possible. Mice were maintained in a temperature-controlled and specific pathogen-free environment with a 12-h light and 12-h dark cycle and they received a standard diet (Transbreed, SDS Diets, Technilab-BMI, Someren, The Netherlands) and acidified water ad libitum. […] Given the objective main readout (repotrectinib plasma and tissue concentrations as measured by LC-MS/MS), no blinding method was applied.
To minimize variation in absorption upon oral administration, mice were fasted for 2–3 h before repotrectinib (10 mg/kg body weight) was administered by gavage into the stomach at 10 µL/g body weight, with a blunt-ended needle. Tail vein serial blood samples were collected at 0.125, 0.25, 0.5, 1, 2 and 4 h using heparinized capillary tubes (Sarstedt, Nümbrecht, Germany) for the 8-h experiments. For the 4- and 2-h experiments, blood samplings were performed from the tail vein with the same schedule, but terminated at 2 and 1 h, respectively. Eight, four, or two hours after oral administration, mice were deeply anesthetized with 2–3% isoflurane, followed by cardiac puncture to collect blood in Eppendorf tubes containing heparin as an anticoagulant. Brain, liver, spleen, kidney, lung, small intestine, and testis were rapidly collected after sacrificing the mice by cervical dislocation. The small intestinal contents (SIC) were separated from small intestinal tissue (SI), which was flushed and rinsed with cold saline to remove any residual feces. Brain, liver, spleen, kidney, lung, SI, SIC, and testis were homogenized with 1, 3, 1, 2, 1, 3, 2, and 1 mL of 2% BSA (w/v), respectively. Plasma fraction was isolated from blood by centrifugation at 9000× g for 6 min at 4 °C. All samples were stored at −30 °C until analysis.

The target of series [3] is T2, endogenous canine ABCB1 (Canis lupus familiaris, UniProt C0KKU9).
T2 construct: the low-level endogenous canine ABCB1 present in MDCK-II cells; host or cells: parental MDCK-II cells (canine kidney)
Nature of the series: Transepithelial transport, parental MDCK-II cells. The note with it: dog, pH 7.4, repotrectinib 5 µM, no inhibitor, read-out: efflux transport ratio r. The format is in vitro ADME.
Excerpt: as §1, §2, §3

Series [4] concerns T3, endogenous canine ABCB1.
T3 construct: the low-level endogenous canine ABCB1 present in MDCK-II cells; host or cells: parental MDCK-II cells (canine kidney)
Briefly: Transepithelial transport, parental MDCK-II cells. The format is in vitro ADME. The note with it: dog, pH 7.4, with zosuquidar 5 µM, 5 µM, + zosuquidar 5 µM, read-out: efflux transport ratio r.
Excerpt: as §1, §2, §3

A short description of series [5]: Oral plasma pharmacokinetics compared across experiments and mouse strains. The format is in vivo, mice.
Excerpt: as §4
Repotrectinib was dissolved in dimethyl sulfoxide (DMSO) at a concentration of 50 mg/mL. […]
A sensitive and specific liquid chromatography-tandem mass spectrometry method using protein precipitation pre-treatment was adopted to quantify the concentration of repotrectinib in DMEM medium, plasma samples and tissue homogenates.
A non-compartmental model using the PKSolver add-in program for Microsoft Excel was adopted to calculate the pharmacokinetic parameters of repotrectinib. Oral availability was assessed by the plasma area under the curve (AUC), calculated using repotrectinib plasma concentration-time curves with the linear trapezoidal rule without extrapolating the infinity. […]

The source of these data is PMC8619046, “ABCB1 and ABCG2 Control Brain Accumulation and Intestinal Disposition of the Novel ROS1/TRK/ALK Inhibitor Repotrectinib, While OATP1A/1B, ABCG2, and CYP3A Limit Its Oral Availability” (Pharmaceutics, 2021).

Read-outs that look alike come from different tables or passages of the source.

T2 sequence (C0KKU9 1-1281): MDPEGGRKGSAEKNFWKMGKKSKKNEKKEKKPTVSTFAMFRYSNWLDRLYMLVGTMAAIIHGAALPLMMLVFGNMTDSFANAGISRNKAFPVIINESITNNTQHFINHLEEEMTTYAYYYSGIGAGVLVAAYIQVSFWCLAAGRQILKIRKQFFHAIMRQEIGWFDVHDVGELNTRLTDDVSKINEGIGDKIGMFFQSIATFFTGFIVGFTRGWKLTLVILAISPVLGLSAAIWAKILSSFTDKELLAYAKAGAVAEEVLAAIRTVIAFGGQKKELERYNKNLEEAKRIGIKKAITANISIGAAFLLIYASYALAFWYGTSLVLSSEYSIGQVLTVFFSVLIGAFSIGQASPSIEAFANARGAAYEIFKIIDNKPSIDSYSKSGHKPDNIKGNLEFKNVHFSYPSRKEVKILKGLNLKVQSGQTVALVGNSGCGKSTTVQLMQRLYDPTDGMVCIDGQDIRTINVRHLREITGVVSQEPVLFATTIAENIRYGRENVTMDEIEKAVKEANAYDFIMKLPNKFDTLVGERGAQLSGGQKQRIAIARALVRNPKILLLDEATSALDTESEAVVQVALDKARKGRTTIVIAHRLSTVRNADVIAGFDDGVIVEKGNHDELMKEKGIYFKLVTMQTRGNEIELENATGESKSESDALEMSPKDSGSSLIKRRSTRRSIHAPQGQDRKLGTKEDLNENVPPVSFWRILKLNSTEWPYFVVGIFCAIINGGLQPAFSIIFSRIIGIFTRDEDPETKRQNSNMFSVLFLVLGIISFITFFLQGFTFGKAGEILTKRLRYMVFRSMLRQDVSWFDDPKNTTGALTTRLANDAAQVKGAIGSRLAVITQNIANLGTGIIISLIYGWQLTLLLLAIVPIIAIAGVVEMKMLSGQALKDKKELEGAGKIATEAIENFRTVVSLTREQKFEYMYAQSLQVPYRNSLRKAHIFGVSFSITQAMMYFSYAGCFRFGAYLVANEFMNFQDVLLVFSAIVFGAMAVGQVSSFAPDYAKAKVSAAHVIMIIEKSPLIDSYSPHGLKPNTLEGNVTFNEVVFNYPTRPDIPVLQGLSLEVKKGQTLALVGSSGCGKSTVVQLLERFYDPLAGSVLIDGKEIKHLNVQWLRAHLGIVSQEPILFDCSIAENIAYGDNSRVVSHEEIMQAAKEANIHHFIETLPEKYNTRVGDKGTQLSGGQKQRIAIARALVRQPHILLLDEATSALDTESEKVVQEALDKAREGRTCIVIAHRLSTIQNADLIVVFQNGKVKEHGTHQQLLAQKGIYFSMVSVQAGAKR

As usually defined, the Tmax is the time from dosing to the highest level. As for `C[C@H]1CNC(=O)c2cnn3ccc(nc23)N[C@H](C)c2cc(F)ccc2O1` [repotrectinib], the “confirmed objective response rate (ORR)” value is reported as 86% in series [1] (TKI-naïve ROS1 + NSCLC patients) and 50% in series [1] (TKI-pretreated patients). Besides, the “treatment-related adverse events, severity” value in series [1] (majority of events, manageable) is reported as “grade 1 or grade 2”. Also, the “most common adverse effect” value in series [1] (on-going phase I clinical trial (NCT03063116)) is “dizziness”. Moreover, the “patients with prominent clinical activity” value in series [1] (patients who had disease progression on prior TRK inhibitors) is listed as 50%. The figures for the efflux ratio at 8 h, 5 µM with human ABCB1, at endogenous canine ABCB1 [3] and in the series with endogenous canine ABCB1 [4] were 1.1, 2.5 and 1, respectively. In addition, the toxicity signs entry in series [2] (Cyp3a−/− and Oatp1a/1b−/− mice) is given as “no noticeable signs of toxicity”; in series [2] (female Abcb1a/1b;Abcg2−/− mice, hypoactivity and continuously closed eyes), “mild toxicity signs”; in series [2] (female wild-type mice), “no noticeable toxicity symptoms”. Besides, in series [2] (female Abcb1a/1b;Abcg2−/− mice), the “time at which signs of toxicity disappeared” value is “around 4 h”. Also, the “time of toxicity signs after oral administration” value in series [2] (female Abcb1a/1b;Abcg2−/− mice) is 1 to 2 h. Also, the Tmax in series [5] (plasma, 10 mg/kg, all tested mouse strains, oral administration) is around 30 min. In series [5] (same oral dose 10 mg/kg, Figure 3 vs Figure S1), the “plasma levels, female relative to male mice” value is recorded as “about 1.6 fold”.
